Where “and” joins values, the source holds several entries; their conditions need not be identical. Identical values can stand only once. Where only a bound is given, the exact number is not on record here.

One may read the IC50 as the midpoint of a concentration-inhibition curve.

Test [1] concerns apolipoprotein(a), [apo(a)], apolipoproteinB-100, [apoB-100], coupling reaction that generates Lp(a). Description: LPABC screen: lipoprotein(a) biochemical coupling assay, Lp(a) by ELISA. Particulars: recombinant apo(a) + HepG2 conditioned media, 67 minutes, 37° C.; ^a = multiple tests. An excerpt: The lipoprotein(a), [Lp(a)], biochemical coupling assay (LPABC) is used to characterize inhibitors of the apolipoprotein(a), [apo(a)], apolipoproteinB-100, [apoB-100], coupling reaction that generates Lp(a).
Protocol Conditioned media from 293 cells (ATCC CRL-1573), permanently transfected with an apo(a) 17-kringle cDNA expression construct (pcDNA-AMP, In Vitrogen, Carlsbad, Calif.) using standard molecular biology techniques, was used as a source of recombinant apo(a). The 293 cell conditioned media containing the recombinant apo(a) is diluted 1:3 with phosphate buffered saline (PBS) and 90 μL is pipetted into each well of a 96-well plate and placed into a 37° C. incubator for 10 minutes. Twenty microliters of a 0.3 to 50 μM solution of a compound of the present invention in PBS is added to the warmed plate. Ninety microliters of HepG2 (ATCC HB-8065) cell conditioned media diluted 1:3 with PBS is added to the apo(a)/compound mixture and mixed by pipetting up and down 5 times. The reaction is incubated for 67 minutes in a 37° C. incubator. A 100 μL aliquot of the reaction is removed and assayed for its Lp(a) content by an enzyme linked immunosorbent assay (ELISA).

Test [2] has as its system Lp(a) production (HepG2^K17 cells). Description: LPA3 screen: inhibition of Lp(a) production in HepG2^K17 cells, Lp(a) by ELISA. It counts as cell-based. The conditions noted are these: 8 h, Lp(a) normalized for total protein, ^a = multiple tests. How it is done: The LPA3 screen is used to identify compounds that inhibit Lp(a) production. This screen employs permanently transfected HepG2 cells (HepG2^K17) that are generated using an apo(a) 17-kringle cDNA expression construct (pcDNA-AMP, In Vitrogen, Carlsbad, Calif.) in accordance with methods that are well-known in molecular biology.
HepG2^K17 cells are seeded in 96-well plates at a density of 75,000 cells per well in 0.25 mL of Dulbecco's Modified Eagle Media (DMEM) containing 10% fetal bovine serum (FBS). Seeded plates are incubated overnight in a 37° C., 5% CO2 /95% […] incubator. The media is removed, replaced with (1) fresh media, or (2) fresh media plus 0.3 to 50 μM of a compound of the present invention in 20 μL of PBS, and the plates returned to the incubator for 8 hours. After the additional 8 hours of incubation, Lp(a) is assayed in the media by ELISA. Cells are digested with 0.5N NaOH overnight and assayed for total protein. Lp(a) values are normalized for total protein content.
(In an ELISA, binding on a coated surface is turned into a signal by an enzyme label.)

As for `CCOC(=O)C(NCC1CC1)c1cc(C(C)(C)C)c(O)c(C(C)(C)C)c1` (centres unmarked) [Example 12, (Cyclopropylmethyl-amino)-(3,5-di-tert-butyl-4-hydroxy-phenyl)-acetic acid ethyl ester], the concentration for half-maximal inhibition (IC50) in test [1] amounted to 12.2 µM. With `CCOC(=O)C(NCc1cc(OC)c(OC)c(OC)c1)c1cc(C(C)(C)C)c(O)c(C(C)(C)C)c1` (centres unmarked) [Example 15, (3,5-Di-tert-butyl-4-hydroxy-phenyl)-(3,4,5-trimethoxy-benzylamino)-acetic acid ethyl ester], the results for the IC50 in test [2] and in test [1] were 4.6 µM and 10.3 µM, respectively.

Consider `CCOC(=O)C(NCc1cccc(C(F)(F)F)c1)c1cc(C(C)(C)C)c(O)c(C(C)(C)C)c1` (centres unmarked) [Example 48, (3,5-Di-tert-butyl-4-hydroxy-phenyl)-(3-trifluoromethyl-benzylamino)-acetic acid ethyl ester], for which the figures for the IC50 in test [2] and in test [1] were above 74 µM and 53.9 µM, respectively.

Consider `CCOC(=O)C(NCC1CCCCC1)c1cc(C(C)CC)c(O)c(C(C)CC)c1` (centres unmarked) [Example 13, (Cyclohexylmethyl-amino)-(3,5-di-sec-butyl-4-hydroxy-phenyl)-acetic acid ethyl ester], for which the IC50 in test [1] turned out to be 67.4 µM.

In the case of `CCOC(=O)C(NCc1ccc(N(C)C)cc1)c1cc(C(C)(C)C)c(O)c(C(C)(C)C)c1` (centres unmarked) [Example 38, (3,5-Di-tert-butyl-4-hydroxy-phenyl)-[4-dimethylamino-benzylamino]-acetic acid ethyl ester], the values for the half-inhibitory concentration (IC50) in test [2] and in test [1] were above 74 µM and 54 µM, respectively. On the same counts, the results for `CCOC(=O)C(NCc1cccc(O)c1)c1cc(C(C)(C)C)c(O)c(C(C)(C)C)c1` (centres unmarked) [Example 42, (3,5-Di-tert-butyl-4-hydroxy-phenyl)-(3-hydroxy-benzylamino)-acetic acid ethyl ester] are above 74 µM and 68.4 µM. Turning to `CCOC(=O)C(NCc1cccc([N+](=O)[O-])c1)c1cc(C(C)(C)C)c(O)c(C(C)(C)C)c1` (centres unmarked) [Example 50, (3,5-Di-tert-butyl-4-hydroxy-phenyl)-(3-nitro-benzylamino)-acetic acid ethyl ester], the IC50 in test [2] is above 74 µM; in test [1], 46.7 µM. For `CCOC(=O)C(NCc1cccc(Cl)c1)c1cc(C(C)(C)C)c(O)c(C(C)(C)C)c1` (centres unmarked) [Example 10, (3-Chloro-benzylamino)-(3,5-di-tert-butyl-4-hydroxy-phenyl)-acetic acid ethyl ester], in test [1], the IC50 came out at 12.5 µM. As for `CCOC(=O)C(NCc1ccsc1)c1cc(C(C)(C)C)c(O)c(C(C)(C)C)c1` (centres unmarked) [Example 46, (3,5-Di-tert-butyl-4-hydroxy-phenyl)-[(thiophen-3-ylmethyl)-amino]-acetic acid ethyl ester], the IC50 in test [2] was above 74 µM; in test [1] it was 34.5 µM. Turning to `CCOC(=O)C(NCC1CCCCC1)c1cc(C(C)(C)C)c(O)c(C(C)(C)C)c1` (centres unmarked) [Example 6, (Cyclohexylmethyl-amino)-(3,5-di-tert-butyl-4-hydroxy-phenyl)-acetic acid ethyl ester], the IC50 in test [2] was above 74 µM; in test [1], 6.52 µM. With `CCNC(C(=O)OCC)c1cc(C(C)(C)C)c(O)c(C(C)(C)C)c1` (centres unmarked) [Example 51, (3,5-Di-tert-butyl-4-hydroxy-phenyl)-(ethylamino)-acetic acid ethyl ester], in test [1], the IC50 worked out at 10.9 µM. Regarding `CCOC(=O)C(c1cc(C(C)(C)C)c(O)c(C(C)(C)C)c1)N1CCOCC1` (centres unmarked) [Example 54, (3,5-Di-tert-butyl-4-hydroxy-phenyl)-(N-morpholinyl)-acetic acid ethyl ester], the IC50 in test [2] is 1.3 µM; in test [1], 0.8 µM. On to `CCOC(=O)C(NCc1ccc(C#N)cc1)c1cc(C(C)(C)C)c(O)c(C(C)(C)C)c1` (centres unmarked) [Example 34, (4-Cyano-benzylamino)-(3,5-di-tert-butyl-4-hydroxy-phenyl)-acetic acid ethyl ester], for which the IC50 in test [2] is above 74 µM; in test [1], 57.6 µM. In the case of `CCOC(=O)C(NCc1ccccc1OC)c1cc(C(C)(C)C)c(O)c(C(C)(C)C)c1` (centres unmarked) [Example 44, (3,5-Di-tert-butyl-4-hydroxy-phenyl)-(2-methoxy-benzylamino)-acetic acid ethyl ester], the results for the IC50 in test [2] and in test [1] were above 74 µM and 54.3 µM, respectively.

Regarding `CCOC(=O)C(NCc1cccnc1)c1cc(C(C)(C)C)c(O)c(C(C)(C)C)c1` (centres unmarked) [Example 2, (3,5-Di-tert-butyl-4-hydroxy-phenyl)-[(pyridin-3-ylmethyl)-amino]-acetic acid ethyl ester], the half-inhibitory concentration (IC50) in test [2] worked out at 20 µM; in test [1], 10 µM. Consider `CC(C)(C)c1cc(C(NCc2cccnc2)C(=O)O)cc(C(C)(C)C)c1O` (centres unmarked) [Example 7, (3,5-Di-tert-butyl-4-hydroxy-phenyl)-[(pyridin-3-ylmethyl)-amino]-acetic acid], for which the IC50 in test [1] was 62.2 µM.

Consider `CCOC(=O)C(NCc1ccc(OC)cc1)c1cc(C(C)(C)C)c(O)c(C(C)(C)C)c1` (centres unmarked) [Example 32, (3,5-Di-tert-butyl-4-hydroxy-phenyl)-(4-methoxy-benzylamino)-acetic acid ethyl ester], for which the IC50 in test [2] was above 74 µM; in test [1], 29.6 µM. On to `CCOC(=O)C(NCc1ccc(OCCN(CC)CC)cc1)c1cc(C(C)(C)C)c(O)c(C(C)(C)C)c1` (centres unmarked) [Example 37, (3,5-Di-tert-butyl-4-hydroxy-phenyl)-[4-(2-diethylamino-ethoxy)-benzylamino]-acetic acid ethyl ester], for which the IC50 in test [1] is 29.6 µM. Turning to `CCOC(=O)C(NCc1ccc(O)cc1)c1cc(C(C)(C)C)c(O)c(C(C)(C)C)c1` (centres unmarked) [Example 43, (3,5-Di-tert-butyl-4-hydroxy-phenyl)-(4-hydroxy-benzylamino)-acetic acid ethyl ester], in test [2], the IC50 is above 74 µM.

Turning to `CCOC(=O)C(NCC1CCCCC1)c1cc(-c2ccccc2)c(O)c(-c2ccccc2)c1` (centres unmarked) [Example 11, (Cyclohexylmethyl-amino)-(2'-hydroxy-[1,1';3',1"]terphenyl-5'-yl)-acetic acid ethyl ester], the IC50 in test [1] was 60.2 µM. As to `CCOC(=O)C(c1cc(C(C)(C)C)c(O)c(C(C)(C)C)c1)N(C)C` (centres unmarked) [Example 17, (3,5-Di-tert-butyl-4-hydroxy-phenyl)-dimethylamino-acetic acid ethyl ester], the IC50 in test [1] came out at 0.65 µM. In the case of `CCOC(=O)C(NC1CCCCC1)c1cc(C(C)(C)C)c(O)c(C(C)(C)C)c1` (centres unmarked) [Example 8, (3,5-Di-tert-butyl-4-hydroxy-phenyl)-[(cyclohexyl)-amino]-acetic acid etyl ester], the half-maximal inhibitory concentration (IC50) in test [1] was found to be 4.16 µM.

Take `CCOC(=O)C(c1cc(C(C)(C)C)c(O)c(C(C)(C)C)c1)N1CCN(C)CC1` (centres unmarked) [Example 55, (3,5-Di-tert-butyl-4-hydroxy-phenyl)-[(N'-methyl)-N-piperazinyl]-acetic acid ethyl ester]: in test [1], the IC50 is 1.66 µM. Regarding `CCOC(=O)C(NCc1ccoc1)c1cc(C(C)(C)C)c(O)c(C(C)(C)C)c1` (centres unmarked) [Example 41, (3,5-Di-tert-butyl-4-hydroxy-phenyl)-[(furan-3-ylmethyl)-amino]-acetic acid ethyl ester], the IC50 in test [1] was determined as 9.37 µM.

Take `CCOC(=O)C(NCc1cc(C(C)(C)C)c(O)c(C(C)(C)C)c1)c1cc(C(C)(C)C)c(O)c(C(C)(C)C)c1` (centres unmarked) [Example 18]: in test [1], the IC50 amounted to 75 µM. `CCOC(=O)C(c1cc(C(C)(C)C)c(O)c(C(C)(C)C)c1)N(Cc1cccnc1)Cc1cccnc1` (centres unmarked) [Example 9, (Bis-pyridin-3-ylmethyl-amino)-(3,5-di-tert-butyl-4-hydroxy-phenyl)-acetic acid ethyl ester]: the IC50 in test [1] was 1.34 µM and 1.3 µM.

The record behind these values is patent US6017918A, “Phenyl glycine compounds and methods of treating atherosclerosis and restenosis” (Warner-Lambert Company, priority 1999, dated 2000).
